Measured values taken from patent US20260297035A1, “PROTEIN KINASE INHIBITORS AND USES THEREOF” (DELiver Therapeutics, Inc., priority 2023, published 2026).

How the values were obtained:
[1] = non-GLP multi-dose toxicity study (dose escalation, daily IP injection); format: in vivo, mouse (6-week-old Balb/c females); conditions: mice
Protocol: An initial non-GLP multi-dose toxicity study of Cmpd11 and Cmpd66 was performed, which included a comparison to COM1 and COM3 clinical compounds. […] Body weights were recorded 2× weekly for healthy mice followed by weekly in the recovery phase. Blood draws were taken, retro-orbitally, every other week (for a total of three blood draws per group) to determine the plasma levels of compounds throughout the duration of the study (unless mice were euthanized prior to completion of the 28-day dosing period). […] Any animals showing more than 9% weight loss were weighed every day and animals were euthanized after a weight loss of 15% or more or evidence of high distress (e.g., listless, hunched posture, high grimace score). Also, plasma samples were drawn at euthanasia. Control groups included vehicle only and no manipulation.
A summary of the study is illustrated in FIG. 14. There are six groups with 90 mice total and following is an overview of groups for the study.
The following are criteria for dose escalation and staggering of group starting points. Animals in each group are monitored after the initial dose for 3-4 days, and if there is no observed dose-limiting toxicity (DLT), then a separate cohort of naïve animals are administered the next higher dose level. Note that each cohort of animals receives the same drug and drug dose for the duration of the 28-day dosing period unless euthanasia is required. Animals in the second, dose-escalated group, are then monitored for 3-4 days, and if there is no observed DLT, animals from a fresh cohort are administered the next higher dose level, while continuing with the former cohorts up to 5 dose levels total. Animals in each cohort then are monitored after the third dose for 7 days, and if there is no observed DLT, then animals are administered the next higher doses. If DLT is observed during a monitoring period for any dose level, a subsequent dose is reduced by a level that is intermediate between the highest tolerated level tested and the minimum toxic level tested.

K562 = assay: In vitro cytotoxic activity (CellTiterGlo), K562 (CML); format: cell-based; conditions: Homo sapiens, 48-hours, read-out: K562 LD50
Protocol: (§1) Non-metabolized targeted toxicity, or general toxicity, of compounds was assessed by treating a panel of selected cell lines in culture with a dilution series of test compounds and the lethal dose that will kill half of the cells (i.e., the LD50) was determined. Compounds herein were assayed against a panel of cytokine-independent Philadelphia chromosome (BCR-ABL1 translocation) positive (Ph+) leukemia and lymphoma cell lines along with several control cell lines that were ABL1-independent. The panel included murine cell lines BaF3-wildtype (wt), BaF3-mutants (BaF3-wt cells engineered to be reliant on various kinase domain mutations with the BCR-ABL1 fusion protein), and various ALL and CML human cell lines, including SD-1, TOM-1, NALM-21, K562, Jeko-1, BV173, and KCL-22.
(§2) To test the cytotoxic activity of compounds herein, 1.6E4 cells were plated in 96-well plates at a final volume of 135 μL per well. Compounds were then added to the wells. In general, final concentrations of compounds started at a maximum concentration of […] and were diluted by half-log concentrations down to a final concentration of 0.316 nM. However, different cell lines required varying drug concentration ranges for optimal LD50 calculations. To create half-log dilutions, 40 mM DMSO solutions of compounds were diluted in half-log iterations to generate 400× starting concentration of compounds in DMSO. The 400× compound solutions were then diluted by 40-fold by adding 5 μL of 400× DMSO stock to 195 μL cell culture media, generating 10× drug concentrations in cell culture media. Then 15 μL of the 10× drug solutions were added to the 135 μL volume of cell suspension, resulting in 1× final drug concentrations with 0.25% DMSO in all wells. 48-hours after adding compounds, cells were measured for relative viability to generate cytotoxicity curves associated with the varying concentrations of compounds. […] LD50 values were measured by normalizing luminescence intensity to the lowest drug concentration. GraphPad Prism was used to plot and calculate LD50 values from the cytotoxic kill curves. Curves were fit to a non-linear regression model, with compound concentration vs. response and variable slope (four parameters).

NALM-21 = assay: In vitro cytotoxic activity (CellTiterGlo), NALM-21 (ALL); format: cell-based; conditions: Homo sapiens; 48-hours; read-out: NALM-21 LD50
Protocol: as §1, §2

## Cc1ccc(Nc2ncc3cccc(-c4ccc(F)cc4OC(C)C)c3n2)cc1NC(=O)c1ccc(C(=O)N(C)C)cc1 [Cmpd11, N1-(5-((8-(4-fluoro-2-isopropoxyphenyl)quinazolin-2-yl)amino)-2-methylphenyl)-N4,N4-dimethylterephthalamide]
[1]; at doses required to reach the in vitro K562-Luc EC50 plasma levels in vivo, early results
  tolerability relative to COM1: more tolerable than COM1
[1]; daily IP, 1.5 mg/kg, through day 24
  tolerability: well tolerated
[1]; daily IP, 4.5 mg/kg, through day 14
  tolerability: well tolerated
[1]; mouse, in vivo, daily IP, 18 mg/kg (12X EC50), by day 7, read-out: expiration of animals (2 out of 5)
  mortality at 168 h: 40%
K562
  IC50: 403 nM
NALM-21
  IC50: 446 nM
